Measurements published in patent publication US7662574B2, “Use of a G protein-coupled receptor and its cognizant ligand in the identification of compounds that affect prolactin secretion” (Takeda Pharmaceutical Company Limited, priority 1999, dated 2010).

Key:
rOT7T022L = target: T1, rOT7T022L (Rattus norvegicus, UniProt Q9EP86); experiment: Site sensor (Cytosensor) acidification rate in rOT7T022L receptor-expressing CHO cells; assay type: cell-based; conditions: peptide exposed to cells for 7 minutes and 2 seconds; FIG. 8
T1 construct: expressed in transfected cells
T1 sequence (Q9EP86 whole entry): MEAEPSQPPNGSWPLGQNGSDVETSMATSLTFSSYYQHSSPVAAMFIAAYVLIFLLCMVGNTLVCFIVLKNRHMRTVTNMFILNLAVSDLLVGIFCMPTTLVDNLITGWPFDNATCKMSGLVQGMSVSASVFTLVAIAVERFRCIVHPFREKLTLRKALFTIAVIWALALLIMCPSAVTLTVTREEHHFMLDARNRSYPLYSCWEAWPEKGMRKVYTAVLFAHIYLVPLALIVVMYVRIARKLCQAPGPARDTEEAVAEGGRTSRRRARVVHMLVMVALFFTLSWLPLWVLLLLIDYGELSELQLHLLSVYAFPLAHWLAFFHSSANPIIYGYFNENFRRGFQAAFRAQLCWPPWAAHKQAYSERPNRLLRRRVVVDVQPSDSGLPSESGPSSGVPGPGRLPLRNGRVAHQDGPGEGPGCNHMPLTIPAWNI
Protocol: The rOT7T022L receptor-expressing CHO cells obtained in Example 7 (2) above were inoculated on capsules for site sensor in 2.7×10^5 cells/capsule. After incubation overnight, the site sensor was mounted to a workstation for the site sensor. A medium for assay (low buffered RMP11640 medium supplemented with 0.1% bovine serum albumin), which was set in the flow path of the site sensor, was supplied to the cells in a pump cycle of ON (80 seconds) and OFF (40 seconds). A rate of change in […] from 8 to 30 seconds after the pump stopped was calculated as an acidification rate. A change of the acidification rate with passage of time was monitored; when stable reading was obtained, the flow path was switched to expose each peptide to the cells for 7 minutes and 2 seconds. In the acidification rate of each well, the data for 3 cycles immediately before the peptide exposure was made 100% for standardization.

Human 0T7T022 receptor = target: T2, Human 0T7T022 receptor (Homo sapiens, UniProt Q9GZQ6); experiment: Effect of pertussis toxin on cAMP production inhibiting activity in human 0T7T022 receptor-expressing CHO cells; assay type: cell-based; conditions: 0.1 μM peptide, 1 μM forskolin, 100 ng/ml pertussis toxin overnight; FIG. 15
T2 construct: expressed in transfected cells; host or cells: CHO cells
T2 sequence (Q9GZQ6 whole entry): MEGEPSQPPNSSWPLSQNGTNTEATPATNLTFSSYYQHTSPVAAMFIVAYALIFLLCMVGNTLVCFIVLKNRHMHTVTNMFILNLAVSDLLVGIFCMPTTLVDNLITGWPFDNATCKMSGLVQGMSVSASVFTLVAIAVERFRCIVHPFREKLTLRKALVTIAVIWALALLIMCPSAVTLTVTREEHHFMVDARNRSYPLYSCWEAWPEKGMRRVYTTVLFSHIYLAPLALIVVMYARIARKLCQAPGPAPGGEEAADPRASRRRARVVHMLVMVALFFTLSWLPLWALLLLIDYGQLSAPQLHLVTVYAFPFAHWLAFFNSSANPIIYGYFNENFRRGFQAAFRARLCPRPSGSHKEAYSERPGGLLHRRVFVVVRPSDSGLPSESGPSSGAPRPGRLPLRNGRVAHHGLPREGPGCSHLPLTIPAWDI
Protocol: Human 0T7T022 receptor-expressing CHO cells obtained in Example 21 were inoculated on a 24-well plate in a concentration of 1×10^5 cells/well. After culturing overnight, the medium was exchanged by a medium added with 100 ng/ml pertussis toxin (Sigma, Inc.) or with a control medium followed by further incubation overnight. The cells were rinsed with Hanks' buffer (HBSS) supplemented with 0.05% BSA and 0.2 mM IBMX and then preincubated at 37° C. for 30 minutes in the same buffer. Next, the cells were incubated at 37° C. for 30 minutes after the buffer was exchanged by Hanks' buffer alone (HBSS) supplemented with 0.05% BSA and 0.2 mM IBMX (black column), or by HBSS further added with 1 μM forskolin only (white column), or by HBSS added with 1 μM forskolin and 0.1 μM RFRP-1-12 (peptide having the 81 (Met) to 92 (Phe) amino acid sequence in SEQ ID NO: 1) (hatched column). After completion of the incubation, cAMP in the cells of each well was extracted and quantified according to the method of cAMP EIA Kit (Amersham, Inc.).

[1] = system: pituitary hormone level in plasma; experiment: Pituitary hormone level in plasma after administration into the third ventricle; assay type: in vivo, Wistar rats; conditions: for plasma prolactin level: vs PBS control
Protocol: The effect of the peptide shown by SEQ ID NO: 39 administered into the third ventricle on pituitary hormone level in plasma, was explored. Mature male Wistar rats (body weights at operation: about 290-350 g) were anesthetized with 50 mg/kg of pentobarbital, i.p., and each rat was immobilized in a rat brain stereotaxic apparatus. The incisor bar was set 3.3 mm lower from the interaural line. The skull was exposed, and using a dental drill a hole was made on the bone for implantation of a guide cannula.
In addition, an anchor screw was buried in one position around the hole. A stainless-steel guide cannula, AG-12 (0.4 mm inner diameter, 0.5 mm outer diameter, EICOM Co., Ltd.), was inserted in such a manner that its tip would be situated in the upper part of the third ventricle. Following the atlas of Paxinos and Watson (1986), the stereotaxic coordinates were set to AP: +7.2 mm (from the interaural line), L: 0.0 mm, and H: +2.0 mm (from the interaural line). The guide cannula was secured to the skull using instant adhesive, dental cement and an anchor screw. A stainless-steel dummy cannula, AD-12 (0.35 mm outer diameter, EICOM Co., Ltd.), was then passed through the guide cannula and locked in position with a cap nut (EICOM Co., Ltd.). After the operation the rats were housed in individual cages and kept for at least a week for postoperative recuperation before starting the experiment.
The operated rat was anesthetized with 50 mg/kg of pentobarbital, i.p., and immobilized in the dorsal position on a necropsy pad. A catheter (SP35, Natsume Seisakusho Co., Ltd.) was inserted into the right jugular vein. On the following day, 400 μl of blood was drawn through the jugular vein catheter. To prevent clotting, a syringe was filled beforehand with 20 μl of saline containing 200 U/ml of heparin. The cap nut and dummy cannula were removed from the rat skull and instead, a stainless steel microinjection cannula AMI13 (0.17 mm inner diameter, 0.35 mm outer diameter, EICOM Co., Ltd.) connected to a Teflon tube (50 cm long, 0.1 mm inner diameter, 0.4 mm outer diameter, EICOM Co., Ltd.) was inserted. The length of the microinjection cannula was adjusted beforehand so that its tip would be exposed from the guide cannula by 1 mm. One end of the Teflon tube was connected to a microsyringe pump and either PBS or the peptide shown by SEQ ID NO: 39 dissolved in PBS was injected, in a total volume of 10 μl, into the third ventricle at a flow rate of 5 μl/min. After a 1 minute standby time following the infusion, the microinjection cannula was disconnected and the dummy cannula was locked in position again with a cap nut. Immediately before the initiation of intraventricular administration and 10, 20, 30, 40, and 60 minutes after the initiation of administration, 400 μl aliquots of blood were collected via the cannula inserted into the jugular vein. Each blood sample collected was centrifuged (5,000 rpm, 10 min.) with a high-speed refrigerated microcentrifuge (MR-150, Tommy Seiko) and the supernatant (plasma) was recovered. The amount of prolactin in the plasma was determined by radioimmunoassay.
The results were shown in terms of a mean±S.E.M. To examine if there was a significant difference between the group administered with the peptide shown by SEQ ID NO: 39 dissolved in PBS and the control group administered with PBS alone, Student's t-test was used. According to the two-tailed test, the risk percentage of 5% or less was assumed to be statistically significant.

[2] = 10 nmols into the third ventricle

Compound: CC(C)C[C@H](NC(=O)[C@H](CC(N)=O)NC(=O)[C@@H]1CCCN1C(=O)[C@@H](N)C(C)C)C(=O)N1CCC[C@H]1C(=O)N[C@@H](CCC(N)=O)C(=O)N[C@@H](CCCNC(=N)N)C(=O)N[C@@H](Cc1ccccc1)C(N)=O
- reaction of rOT7T022L-expressing CHO cells (acidification rate) (rOT7T022L): strongly showed dose-dependent reaction

Compound: H-MPHSFANLPLRF-NH2
- cAMP production inhibiting activity in cells treated with pertussis toxin (Human 0T7T022 receptor): lost
- level of ACTH in plasma [1, 2]: none showed any significant change
- level of GH in plasma [1, 2]: none showed any significant change
- level of LH in plasma [1, 2]: none showed any significant change
- level of TSH in plasma [1, 2]: none showed any significant change
- plasma prolactin level ([1]; 10 minutes after 10 nmols into the third ventricle): tended to increase
- plasma prolactin level ([1]; 20 minutes after 10 nmols into the third ventricle): significantly increased
- plasma prolactin level ([1]; 30 minutes after 10 nmols into the third ventricle): significantly increased
- plasma prolactin level ([1]; 40 minutes after 10 nmols into the third ventricle): significantly increased
- plasma prolactin level ([1]; 60 minutes after 10 nmols into the third ventricle): a significant difference was noted
- reaction of rOT7T022L-expressing CHO cells (acidification rate) (rOT7T022L): strongly showed dose-dependent reaction
